Measured values reported in patent US8603527B2, “Pharmaceutical formulations of a substituted diaminopurine” (Signal Pharmaceuticals, LLC, priority 2010, dated 2013).

Tested on: healthy volunteers
Experiment: Safety and tolerability of ascending multiple oral doses in healthy volunteers
Format: in vivo, human
Procedure: Study Design: This study was a randomized, double-blind, placebo-controlled, ascending-dose trial to evaluate the safety, tolerability and pharmacokinetics (PK) of multiple oral doses of Compound I. Subjects were enrolled into 1 of the 4 cohorts, 10 subjects per cohort (active:placebo=8:2). Subjects received a multiple oral dose of 25, 50, 100, or 200 mg unformulated Compound I in a capsule, or matching placebo, once daily (QD) for 14 days.
Assessments: Safety and tolerability were assessed by adverse event (AE) monitoring, clinical laboratory testing, vital sign measurement, 12-lead ECG measurement, concomitant medication assessment, and physical examination. Blood and urine samples were collected to assess the PK profile of Compound I and the S-cis isomer of Compound I. Blood samples (˜5 mL) for plasma PK analysis were collected in K2-EDTA vacutainer tubes to yield approximately 2 mL of plasma at each of the following time points: (i) Day 1: before dosing, and 0.25, 0.5, 1, 1.5, 2, 2.5, 3, 4, 6, 8, 10, 12, 16, and 24 hours after dosing; (ii) Day 3 to Day 9: before dosing; (iii) Day 10: before dosing, and 0.25, 0.5, 1, 1.5, 2, 2.5, 3, 4, 6, 8, 10, 12, and 16 hours after dosing; (iv) Day 11 to Day 13: before dosing; (v) Day 14: before dosing, and 0.25, 0.5, 1, 1.5, 2, 2.5, 3, 4, 6, 8, 10, 12, 16, 24, 48, 72, 96, 120, 144, and 168 hours after dosing. Urine samples for the PK analysis were collected as a single block at: (i) Day 1: before dosing (spot collection), 0 to 8, 8 to 16, and 16 to 24 hours after dosing; and (ii) Day 14: 0 to 8, 8 to 16, and 16 to 24 hours after dosing. Both plasma and urine concentrations of Compound I and its S-cis isomer were measured using validated liquid chromatography-tandem mass spectrometry (LC/MS/MS).
Data Analysis: Safety data were summarized using descriptive statistics by treatment. PK parameters for Compound I and its S-cis isomer were calculated using non-compartmental analysis using WinNonlin (Version 5.0.1 or greater; Pharsight Corporation, Mountain View, Calif.). Dose proportionality and dose independence were evaluated by visual inspection. Intra-subject variability was assessed using an ANOVA model using data from Days 10 and 14.

O[C@H]1CC[C@H](Nc2ncc3nc(Nc4c(F)cc(F)cc4F)n([C@H]4CCOC4)c3n2)CC1 [Compound I, 4-((9-((3S)-tetrahydro-3-furanyl)-8-((2,4,6-trifluorophenyl)amino)-9H-purin-2-yl)amino)-trans-cyclohexanol]
1 (12.5) n (%): Headache, number of subjects reporting TEAE (25 mg QD for 14 days (N = 8)) | Nasal congestion, number of subjects reporting TEAE (25 mg QD for 14 days (N = 8)) | Nausea, number of subjects reporting TEAE (25 mg QD for 14 days (N = 8)) | Dermatitis contact, number of subjects reporting TEAE (50 mg QD for 14 days (N = 8)) | Rhinitis, number of subjects reporting TEAE (50 mg QD for 14 days (N = 8)) | Pharyngolaryngeal pain, number of subjects reporting TEAE (100 mg QD for 14 days (N = 8)) | Rhinitis, number of subjects reporting TEAE (100 mg QD for 14 days (N = 8)) | Dermatitis contact, number of subjects reporting TEAE (200 mg QD for 14 days (N = 8)) | Dizziness, number of subjects reporting TEAE (200 mg QD for 14 days (N = 8)) | Nasal congestion, number of subjects reporting TEAE (200 mg QD for 14 days (N = 8)) | Nausea, number of subjects reporting TEAE (200 mg QD for 14 days (N = 8)) | Pharyngolaryngeal pain, number of subjects reporting TEAE (200 mg QD for 14 days (N = 8))
2 (25.0) n (%): Flatulence, number of subjects reporting TEAE (50 mg QD for 14 days (N = 8)) | Headache, number of subjects reporting TEAE (50 mg QD for 14 days (N = 8)) | Dizziness, number of subjects reporting TEAE (100 mg QD for 14 days (N = 8))
0 n (%): Dermatitis contact, number of subjects reporting TEAE (25 mg QD for 14 days (N = 8)) | Dizziness, number of subjects reporting TEAE (25 mg QD for 14 days (N = 8)) | Flatulence, number of subjects reporting TEAE (25 mg QD for 14 days (N = 8)) | Pharyngolaryngeal pain, number of subjects reporting TEAE (25 mg QD for 14 days (N = 8)) | Rhinitis, number of subjects reporting TEAE (25 mg QD for 14 days (N = 8)) | Dizziness, number of subjects reporting TEAE (50 mg QD for 14 days (N = 8)) | Nasal congestion, number of subjects reporting TEAE (50 mg QD for 14 days (N = 8)) | Nausea, number of subjects reporting TEAE (50 mg QD for 14 days (N = 8)) | Pharyngolaryngeal pain, number of subjects reporting TEAE (50 mg QD for 14 days (N = 8)) | Dermatitis contact, number of subjects reporting TEAE (100 mg QD for 14 days (N = 8)) | Flatulence, number of subjects reporting TEAE (100 mg QD for 14 days (N = 8)) | Nasal congestion, number of subjects reporting TEAE (100 mg QD for 14 days (N = 8)) | Nausea, number of subjects reporting TEAE (100 mg QD for 14 days (N = 8)) | Flatulence, number of subjects reporting TEAE (200 mg QD for 14 days (N = 8)) | Headache, number of subjects reporting TEAE (200 mg QD for 14 days (N = 8)) | Rhinitis, number of subjects reporting TEAE (200 mg QD for 14 days (N = 8))
well tolerated: tolerability (doses up to 200 mg QD for 14 days)
16/32: subjects reporting treatment-emergent adverse events (active, 25-200 mg QD for 14 days)
3 (37.5) n (%): Total TEAEs, number of subjects reporting TEAE (25 mg QD for 14 days (N = 8)) | Headache, number of subjects reporting TEAE (100 mg QD for 14 days (N = 8)) | Total TEAEs, number of subjects reporting TEAE (200 mg QD for 14 days (N = 8))
2: Headache, E = number of TEAE (50 mg QD for 14 days (N = 8)) | Dizziness, E = number of TEAE (100 mg QD for 14 days (N = 8))
4 (50.0) n (%): Total TEAEs, number of subjects reporting TEAE (100 mg QD for 14 days (N = 8))
10: Total TEAEs, E = number of TEAE (100 mg QD for 14 days (N = 8))
6: Total TEAEs, E = number of TEAE (25 mg QD for 14 days (N = 8))
6 (75.0) n (%): Total TEAEs, number of subjects reporting TEAE (50 mg QD for 14 days (N = 8))
4: Flatulence, E = number of TEAE (50 mg QD for 14 days (N = 8))
1: Headache, E = number of TEAE (25 mg QD for 14 days (N = 8)) | Nasal congestion, E = number of TEAE (25 mg QD for 14 days (N = 8)) | Nausea, E = number of TEAE (25 mg QD for 14 days (N = 8)) | Dermatitis contact, E = number of TEAE (50 mg QD for 14 days (N = 8)) | Rhinitis, E = number of TEAE (50 mg QD for 14 days (N = 8)) | Pharyngolaryngeal pain, E = number of TEAE (100 mg QD for 14 days (N = 8)) | Rhinitis, E = number of TEAE (100 mg QD for 14 days (N = 8)) | Dermatitis contact, E = number of TEAE (200 mg QD for 14 days (N = 8)) | Dizziness, E = number of TEAE (200 mg QD for 14 days (N = 8)) | Nasal congestion, E = number of TEAE (200 mg QD for 14 days (N = 8)) | Pharyngolaryngeal pain, E = number of TEAE (200 mg QD for 14 days (N = 8))
15: Total TEAEs, E = number of TEAE (200 mg QD for 14 days (N = 8))
3: Headache, E = number of TEAE (100 mg QD for 14 days (N = 8)) | Nausea, E = number of TEAE (200 mg QD for 14 days (N = 8))
no serious or severe TEAE was reported: serious or severe TEAE (25-200 mg QD for 14 days)
20: Total TEAEs, E = number of TEAE (50 mg QD for 14 days (N = 8))
